# From patent US7288659B2, “Acylaminothiazole derivatives, their preparation and therapeutic use” (Sanofi-Aventis, priority 2001, dated 2007)
# Counter-ions that a name gives are not always drawn.
row,Compound,melting point
1,"CCC[C@H](NC(=O)Cc1cc(F)cc(F)c1)C(=O)Nc1nc(C)c(-c2ccccc2COC2CCN(C)CC2)s1 (as salt: phosphate) [compound 68, (2S)-N-(5-{2-[(N-methylpiperidin-4-yloxy)methyl]-phenyl}-4-methyl-1,3-thiazol-2-yl)-2-{[2-(3,5-difluorophenyl)acetyl]amino}pentanamide]",186 °C
2,"C[C@H](NC(=O)[C@H](O)c1cc(F)cc(F)c1)C(=O)Nc1ncc(-c2ccccc2COC2CCCCC2)s1 (racemic) [Compound No. 50, (2S)-N-(5-{2-[(cyclohexyloxy)methyl]phenyl}-1,3-thiazol-2-yl)-2-{[(2R)-2-(3,5-difluorophenyl)-2-hydroxyacetyl]amino}propanamide]",169 °C
3,"C[C@H](NC(=O)[C@H](F)c1cc(F)cc(F)c1)C(=O)Nc1ncc(-c2ccccc2COC2CCCCC2)s1 (racemic) [Compound No. 65, (2S)-N-(5-{2-[(cyclohexyloxy)methyl]phenyl}-1,3-thiazol-2-yl)-2-{[(2R)-2-(3,5-difluorophenyl)-2-fluoroacetyl]amino}propanamide]",78 °C
4,"CC(NC(=O)Cc1cc(F)cc(F)c1)C(=O)Nc1ncc(-c2ccccc2COC2CCCCC2)s1 (centres unmarked) [Compound No. 2, N-(5-{2-[(cyclohexyloxy)methyl]phenyl}-1,3-thiazol-2-yl)-2-{[2-(3,5-difluorophenyl)acetyl]amino}propanamide]",126 °C
5,"CC(NC(=O)Cc1cc(F)cc(F)c1)C(=O)Nc1ncc(-c2ccccc2COc2ccccc2)s1 (centres unmarked) [Compound No. 5, 2-{[2-(3,5-difluorophenyl)acetyl]amino}-N-{5-[2-(phenoxymethyl)phenyl]-1,3-thiazol-2-yl}propanamide]",114 °C
6,"CC(NC(=O)Cc1cc(F)cc(F)c1)C(=O)Nc1ncc(-c2ccccc2COCc2ccccc2)s1 (centres unmarked) [Compound No. 6, N-(5-{2-[(benzyloxy)methyl]phenyl}-1,3-thiazol-2-yl)-2-{[2-(3,5-difluorophenyl)acetyl]amino}propanamide]",147 °C
7,"C[C@H](NC(=O)Cc1cc(F)cc(F)c1)C(=O)Nc1ncc(-c2ccccc2COC2CCCCC2)s1 [Compound No. 26, (2S)-N-(5-{2-[(cyclohexyloxy)methyl]phenyl}-1,3-thiazol-2-yl)-2-{[2-(3,5-difluorophenyl)acetyl]amino}-propanamide]",140 °C
8,"C[C@H](NC(=O)[C@@H](O)c1cc(F)cc(F)c1)C(=O)Nc1ncc(-c2ccccc2COC2CCCCC2)s1 [Compound No. 51, (2S)-N-(5-{2-[(cyclohexyloxy)methyl]phenyl}-1,3-thiazol-2-yl)-2-{[(2S)-2-(3,5-difluorophenyl)-2-hydroxyacetyl]amino}propanamide]",159 °C
9,"CCC[C@H](NC(=O)C(C)c1cc(F)cc(F)c1)C(=O)Nc1ncc(-c2ccccc2COC2CCCCC2)s1 (stereo partly drawn) [Compound No. 58, (2S)-N-(5-{2-[(cyclohexyloxy)methyl]phenyl}-1,3-thiazol-2-yl)-2-{[2-(3,5-difluorophenyl)propanoyl]-amino}pentanamide]",88 °C
10,"C[C@H](NC(=O)C(=O)c1cc(F)cc(F)c1)C(=O)Nc1ncc(-c2ccccc2COC2CCCCC2)s1 [Compound No. 61, (2S)-N-(5-{2-[(cyclohexyloxy)methyl]phenyl}-1,3-thiazol-2-yl)-2-{[2-(3,5-difluorophenyl)-2-oxoacetyl]-amino}propanamide]",78 °C
11,"C[C@H](NC(=O)[C@@H](F)c1cc(F)cc(F)c1)C(=O)Nc1ncc(-c2ccccc2COC2CCCCC2)s1 [Compound No. 66, (2S)-N-(5-{2-[(cyclohexyloxy)methyl]phenyl}-1,3-thiazol-2-yl)-2-{[(2S)-2-(3,5-difluorophenyl)-2-fluoroacetyl]amino}propanamide]",158 °C
12,"CCC[C@H](NC(=O)Cc1cc(F)cc(F)c1)C(=O)Nc1ncc(-c2ccc(OC)cc2COC(C)C)s1 [Compound No. 75, (2S)-2-{[2-(3,5-difluorophenyl)acetyl]amino}-N-(5-{2-(isopropoxymethyl)-4-methoxyphenyl}-1,3-thiazol-2-yl)pentanamide]",73.9 °C
13,"CCOCc1ccccc1-c1cnc(NC(=O)C(C)NC(=O)Cc2cc(F)cc(F)c2)s1 (centres unmarked) [compound 3, 2-{[2-(3,5-difluorophenyl)acetyl]amino}-N-{5-[2-(ethoxymethyl)phenyl]-1,3-thiazol-2-yl}propanamide]",165 °C
14,"CC(C)COCc1ccccc1-c1cnc(NC(=O)C(C)NC(=O)Cc2cc(F)cc(F)c2)s1 (centres unmarked) [compound 4, 2-{[2-(3,5-difluorophenyl)acetyl]amino}-N-{5-[2-(isobutoxymethyl)phenyl]-1,3-thiazol-2-yl}propanamide]",181 °C
15,"CC(NC(=O)Cc1cc(F)cc(F)c1)C(=O)Nc1ncc(-c2ccccc2COCC2CCCCC2)s1 (centres unmarked) [compound 8, N-(5-{2-[(cyclohexylmethoxy)methyl]phenyl}-1,3-thiazol-2-yl)-2-{[2-(3,5-difluorophenyl)acetyl]amino}-propanamide]",143 °C
16,"CCC(NC(=O)Cc1cc(F)cc(F)c1)C(=O)Nc1ncc(-c2ccccc2COC2CCCCC2)s1 (centres unmarked) [compound 9, N-(5-{2-[(cyclohexyloxy)methyl]phenyl}-1,3-thiazol-2-yl}-2-{[2-(3,5-difluorophenyl)acetyl]amino}butanamide]",179 °C

row,Compound,melting point
1,"CC(C)C(NC(=O)Cc1cc(F)cc(F)c1)C(=O)Nc1ncc(-c2ccccc2COC2CCCCC2)s1 (centres unmarked) [compound 10, N-(5-{2-[(cyclohexyloxy)methyl]phenyl}-1,3-thiazol-2-yl}-2-{[2-(3,5-difluorophenyl)acetyl]amino}-3-methylbutanamide]",181 °C
2,"CC(NC(=O)Cc1ccccc1)C(=O)Nc1ncc(-c2ccccc2COC2CCCCC2)s1 (centres unmarked) [compound 11, N-(5-{2-[(cyclohexyloxy)methyl]phenyl}-1,3-thiazol-2-yl}-2-[(2-phenylacetyl)amino]propanamide]",162 °C
3,"Cc1nc(NC(=O)C(C)NC(=O)Cc2cc(F)cc(F)c2)sc1-c1ccccc1COC1CCCCC1 (centres unmarked) [compound 12, N-(5-{2-[(cyclohexyloxy)methyl]phenyl}-4-methyl-1,3-thiazol-2-yl)-2-{[2-(3,5-difluorophenyl)acetyl]-amino}propanamide]",152 °C
4,"COCc1ccccc1-c1cnc(NC(=O)C(C)NC(=O)Cc2cc(F)cc(F)c2)s1 (centres unmarked) [compound 13, 2-{[2-(3,5-difluorophenyl)acetyl]amino}-N-{5-[2-(methoxymethyl)phenyl]-1,3-thiazol-2-yl}propanamide]",194 °C
5,"Cc1nc(NC(=O)C(C)NC(=O)Cc2cc(F)cc(F)c2)sc1-c1ccccc1COC1CCCC1 (centres unmarked) [compound 14, N-(5-{2-[(cyclopentyloxy)methyl]phenyl}-4-methyl-1,3-thiazol-2-yl)-2-{[2-(3,5-difluorophenyl)acetyl]-amino}propanamide]",104 °C
6,"O=C(Cc1cc(F)cc(F)c1)NCC(=O)Nc1ncc(-c2ccccc2COC2CCCCC2)s1 [compound 15, N-{2-[(5-{2-[(cyclohexyloxy)methyl]phenyl}-1,3-thiazol-2-yl)amino]-2-oxoethyl}-2-(3,5-difluorophenyl)-acetamide]",172 °C
7,"Cc1cccc(CC(=O)N[C@@H](C)C(=O)Nc2ncc(-c3ccccc3COC3CCCCC3)s2)c1 [compound 16, (2S)-N-(5-{2-[(cyclohexyloxy)methyl]phenyl}-1,3-thiazol-2-yl)-2-{[2-(3-methylphenyl)acetyl]amino}-propanamide]",98 °C
8,"Cc1ccc(CC(=O)N[C@@H](C)C(=O)Nc2ncc(-c3ccccc3COC3CCCCC3)s2)cc1 [compound 17, (2S)-N-(5-{2-[(cyclohexyloxy)methyl]phenyl}-1,3-thiazol-2-yl)-2-{[2-(4-methylphenyl)acetyl]amino}-propanamide]",239 °C
9,"C[C@H](NC(=O)Cc1cccc(Cl)c1)C(=O)Nc1ncc(-c2ccccc2COC2CCCCC2)s1 [compound 18, (2S)-2-{[2-(3-chlorophenyl)acetyl]amino}-N-{5-{2-[(cyclohexyloxy)methyl]phenyl}-1,3-thiazol-2-yl}propanamide]",96 °C
10,"C[C@H](NC(=O)Cc1cccc(F)c1)C(=O)Nc1ncc(-c2ccccc2COC2CCCCC2)s1 [compound 19, (2S)-N-(5-{2-[(cyclohexyloxy)methyl]phenyl}-1,3-thiazol-2-yl)-2-{[2-(3-fluorophenyl)acetyl]amino}-propanamide]",98 °C
11,"C[C@H](NC(=O)Cc1ccc(F)cc1)C(=O)Nc1ncc(-c2ccccc2COC2CCCCC2)s1 [compound 20, (2S)-N-(5-{2-[(cyclohexyloxy)methyl]phenyl}-1,3-thiazol-2-yl)-2-{[2-(4-fluorophenyl)acetyl]amino}-propanamide]",70 °C
12,"C[C@H](NC(=O)Cc1cc(F)cc(F)c1)C(=O)Nc1ncc(-c2ccccc2COc2ccccc2)s1 [compound 21, (2S)-2-{[2-(3,5-difluorophenyl)acetyl]amino}-N-{5-[2-(phenoxymethyl)phenyl]-1,3-thiazol-2-yl}propanamide]",78 °C
13,"CC(C)OCc1ccccc1-c1cnc(NC(=O)[C@H](C)NC(=O)Cc2cc(F)cc(F)c2)s1 [compound 22, (2S)-2-{[2-(3,5-difluorophenyl)acetyl]amino}-N-{5-[2-(isopropoxymethyl)phenyl]-1,3-thiazol-2-yl}propanamide]",136 °C
14,"Cc1nc(NC(=O)[C@H](C)NC(=O)Cc2cc(F)cc(F)c2)sc1-c1ccccc1COC1CCCCC1 [compound 23, (2S)-N-(5-{2-[(cyclohexyloxy)methyl]phenyl}-4-methyl-1,3-thiazol-2-yl)-2-{[2-(3,5-difluorophenyl)-acetyl]amino}propanamide]",85 °C
15,"C[C@H](NC(=O)Cc1cc(F)cc(F)c1)C(=O)Nc1ncc(-c2cccc(COC3CCCCC3)c2)s1 [compound 24, (2S)-N-(5-{3-[(cyclohexyloxy)methyl]phenyl}-1,3-thiazol-2-yl)-2-{[2-(3,5-difluorophenyl)acetyl]amino}-propanamide]",123 °C
16,"C[C@@H](NC(=O)Cc1cc(F)cc(F)c1)C(=O)Nc1ncc(-c2ccccc2COC2CCCCC2)s1 [compound 25, (2R)-N-(5-{2-[(cyclohexyloxy)methyl]phenyl}-1,3-thiazol-2-yl)-2-{[2-(3,5-difluorophenyl)acetyl]amino}-propanamide]",95 °C
